Results as given in patent publication EP2258713A1, “Antiviral Triterpene Derivatives” (priority 2009, dated 2010).
Read-outs that look alike come from different tables or passages of the source.

Experiments:
[1] = tested on: murine retinal ganglion cells; conditions: cited from earlier work
MDCK cells [2] = conditions: dog, 48 h
CK-2 = conditions: 30 µM; cited from earlier work
MDCK cells [3] = experiment: Cytotoxicity determination: cell viability of uninfected cells, CellTiter-Glo luminescent cell viability assay; conditions: 48 h; for Viability %: MDCK cells
PKC and CK-I = conditions: 100 µM; cited from earlier work
H3N2 Influenza A Virus = type: cell-based
TNFα = experiment: Expression of TNFα in cells (general statement, no data shown); type: cell-based; conditions: no values
Excerpt: A person skilled in the art would be able to identify TNFα-downregulating compounds of the invention by contacting one or more cells with a compound of the invention and assaying for the presence of one TNFα and comparing the levels of TNFα in the one or more cells with that of controls. Such methods are known in the art and are described in the examples herein below.

Compound	Viability % (MDCK cells [3]; 25 µM) [%]	Viability % (MDCK cells [3]; 250 µM) [%]	further results
CC1(C)[C@@H](O)CC[C@]2(C)[C@H]3C(=O)C=C4[C@@H]5C[C@@](C)(C(=O)O)CC[C@]5(C)CC[C@@]4(C)[C@]3(C)CC[C@@H]12 [Glycyrrhetinic acid]	–	–	postsynaptic light response [1]: 30 % of control; Viability % (MDCK cells [2]; 25 µM): 0.2%; Viability % (MDCK cells [2]; 250 µM): 0.0%; phosphorylation of C3α by CK-2 (CK-2): completely inhibited
COC(=O)[C@H]1O[C@@H](SCCN(C(C)=O)[C@H]2CC[C@]3(C)[C@H]4C(=O)C=C5[C@@H]6C[C@@](C)(C(=O)O)CC[C@]6(C)CC[C@@]5(C)[C@]4(C)CC[C@H]3C2(C)C)[C@H](O)[C@@H](O)[C@@H]1O [Compound 4, (3S,18R,20S)-3-{N-Acetyl-N-[2-S-(methyl-1-thio-beta-D-glucopyranosyluronate)-ethyl]-amino}-11-oxo-olean-12-en-29-oic acid]	104.4	99.4	–
CC1(C)[C@@H](O[C@H]2O[C@H](C(=O)O)[C@@H](O)[C@H](O)[C@H]2O[C@@H]2O[C@H](C(=O)O)[C@@H](O)[C@H](O)[C@H]2O)CC[C@]2(C)[C@H]3C(=O)C=C4[C@@H]5C[C@@](C)(C(=O)O)CC[C@]5(C)CC[C@@]4(C)[C@]3(C)CC[C@@H]12 [Glycyrrhizin, glycyrrhizin, reference compound]	100.9	105.3	phosphorylation of HMGB1/2 by PKC and CK-I (PKC and CK-I): completely inhibits; Viability % (MDCK cells [3]; 1500 µM): 101.7%; cell viability of uninfected treated cells versus uninfected untreated cells (MDCK cells [3]; 1.5 mM, uninfected MDCK cells): not significantly different; reduction of the CPE (cytopathic effect) (H3N2 Influenza A Virus): 57%
CON(C1OC(CO)C(O)C(O)C1O)C1CCC2(C)C(CCC3(C)C2C(=O)C=C2C4CC(C)(C(=O)O)CCC4(C)CCC23C)C1(C)C [Compound 1, (3S,18R,20S)-11-Oxo-3-[(beta-D-glucopyranosyl)methoxamino]-olean-12-en-29-oic acid]	–	–	cytopathic effect associated with virus replication in cell culture (H3N2 Influenza A Virus; general statement, no values): reduce the cytopathic effect; expression of TNFα (TNFα): inhibit the expression of TNFα
COC(=O)[C@H]1O[C@@H](SCCN[C@H]2CC[C@]3(C)[C@H]4C(=O)C=C5[C@@H]6C[C@@](C)(C(=O)O)CC[C@]6(C)CC[C@@]5(C)[C@]4(C)CC[C@H]3C2(C)C)[C@H](O)[C@@H](O)[C@@H]1O [Compound 2, (3S,18R,20S)-3-[2-S-(Methyl-1-thio-beta-D-glucopyranosyluronate)-ethyl-amino]-11-oxo-olean-12-en-29-oic acid]	114.6	101.2	–
CC(=O)N(CCS[C@@H]1O[C@H](C(=O)O)[C@@H](O)[C@H](O)[C@H]1O)[C@H]1CC[C@]2(C)[C@H]3C(=O)C=C4[C@@H]5C[C@@](C)(C(=O)O)CC[C@]5(C)CC[C@@]4(C)[C@]3(C)CC[C@H]2C1(C)C [Compound 5, (3S,18R,20S)-3-{N-Acetyl-N-[2-(beta-D-glucopyranuronosylthio)-ethyl]-amino}-11-oxo-olean-12-en-29-oic acid]	106.6	93.5	–
CC1(C)[C@@H](NCCS[C@@H]2O[C@H](C(=O)O)[C@@H](O)[C@H](O)[C@H]2O)CC[C@]2(C)[C@H]3C(=O)C=C4[C@@H]5C[C@@](C)(C(=O)O)CC[C@]5(C)CC[C@@]4(C)[C@]3(C)CC[C@@H]12 [Compound 3, (3S,18R,20S)-3-[2-(β-D-glucopyranuronosylthio)-ethyl-amino]-11-oxo-olean-12-en-29-oic acid]	103.5	105.5	–
COC(=O)CCC(=O)N(CCS[C@@H]1O[C@H](C(=O)OC)[C@@H](O)[C@H](O)[C@H]1O)[C@H]1CC[C@]2(C)[C@H]3C(=O)C=C4[C@@H]5C[C@@](C)(C(=O)O)CC[C@]5(C)CC[C@@]4(C)[C@]3(C)CC[C@H]2C1(C)C [Compound 6, (3S,18R,20S)-3-{N-(4-Methoxy-1,4-dioxobutyl)-N-[2-S-(methyl-1-thio-beta-D-glucopyranosyluronate)-ethyl]-amino}-11-oxo-olean-12-en-29-oic acid]	107.3	106.3	–
